Measured values from US8802678B2, “Carbonylated (aza) cyclohexanes as dopamine D3 receptor ligands” (Bioprojet, priority 2006, dated 2014).

`CCCNC(=O)C[C@H]1CC[C@H](CCN2CCN(c3ccccc3F)CC2)CC1` [Example 306, 2-(4-{2-[4-(2-Fluorophenyl)-piperazin-1-yl]ethyl}cyclohexyl)-N-propylacetamide] gave a melting point of 150 °C.
Work on `CC(=O)CN1CCC(CCN2CCN(c3ccc(C)cc3)CC2)CC1` [Example 310, 1-{4-[2-(4-p-Tolylpiperazin-1-yl)ethyl]piperidin-1-yl}propan-2-one] yielded a melting point of 92 °C.
`CC(=O)CN1CCC(CCN2CCN(c3cc(Cl)cc(Cl)c3)CC2)CC1` [Example 311, 1-(4-{2-[4-(3,5-Dichlorophenyl)-piperazin-1-yl]ethyl}piperidin-1-yl)propan-2-one] showed a melting point of 126 °C.
For `CCCc1cccc(N2CCN(CC[C@H]3CC[C@H](NC(=O)CCCC#N)CC3)CC2)c1` [Example 312, 4-Cyano-N-(4-{2-[4-(3-propylphenyl)piperazin-1-yl]ethyl}cyclohexyl)butanamide], the melting point was 142 °C.
In the case of `Cc1c(F)cccc1N1CCN(CC[C@H]2CC[C@H](NC(=O)CC#N)CC2)CC1` [Example 313, 2-Cyano-N-(4-{2-[4-(3-fluoro-2-methylphenyl)piperazin-1-yl]ethyl}cyclohexyl)acetamide], the melting point is reported as 174 °C.
With `CC(F)(F)c1cccc(N2CCN(CC[C@H]3CC[C@H](NC(=O)CCCC#N)CC3)CC2)c1` [Example 314, 4-Cyano-N-[4-(2-{4-[3-(1,1-difluoroethyl)phenyl]piperazin-1-yl}ethyl)cyclohexyl]butanamide] the melting point was 179 °C.
`N#CCC(=O)N[C@H]1CC[C@H](CCN2CCN(c3ccc4c(c3)OCO4)CC2)CC1` [Example 315, N-{4-[2-(4-Benzo[1,3]dioxol-5-ylpiperazin-1-yl)ethyl]cyclohexyl}-2-cyanoacetamide] gave a melting point of 226 °C.
For `N#CCC(=O)N[C@H]1CC[C@H](CCN2CCN(c3ccc4c(c3)OCCO4)CC2)CC1` [Example 316, 2-Cyano-N-(4-{2-[4-(2,3-dihydrobenzo[1,4]dioxin-6-yl)piperazin-1-yl]ethyl}cyclohexyl)acetamide], the melting point was 208 °C.
`O=C(CC(F)(F)F)N[C@H]1CC[C@H](CCN2CCN(c3cccc4ncccc34)CC2)CC1` [Example 320, 3,3,3-Trifluoro-N-{4-[2-(4-quinolin-5-ylpiperazin-1-yl)ethyl]cyclohexyl}propanami-de] showed a melting point of 207 °C.
With `N#CCCCC(=O)N[C@H]1CC[C@H](CCN2CCN(c3cccc4ncccc34)CC2)CC1` [Example 321, 4-Cyano-N-{4-[2-(4-quinolin-5-ylpiperazin-1-yl)ethyl]cyclohexyl}butanamide] the melting point was 155 °C.
Compound `Cc1cc(N2CCN(CC[C@H]3CC[C@H](NC(=O)CC#N)CC3)CC2)ccc1F` [Example 322, 2-Cyano-N-(4-{2-[4-(4-fluoro-3-methylphenyl)piperazin-1-yl]ethyl}cyclohexyl)acetamide] has a melting point of 192 °C.
For `N#CCC(=O)N[C@H]1CC[C@H](CCN2CCN(c3ccc(F)c(F)c3)CC2)CC1` [Example 325, 2-Cyano-N-(4-{2-[4-(3,4-difluorophenyl)piperazin-1-yl]ethyl}cyclohexyl)acetamide], the melting point was 197 °C.
Work on `CCc1cccc(N2CCN(CC[C@H]3CC[C@@H](NC(=O)CC#N)CC3)CC2)c1` [Example 328, 2-Cyano-N-(4-{2-[4-(3-ethylphenyl)piperazin-1-yl]ethyl}cyclohexyl)acetamide] yielded a melting point of 101 °C.
Compound `C[S+]([O-])CC(=O)N[C@H]1CC[C@H](CCN2CCN(c3cccc(C(F)(F)F)c3)CC2)CC1` (stereo partly shown) [Example 334, 2-Methanesulfinyl-N-(4-{2-[4-(3-trifluoromethylphenyl)piperazin-1-yl]ethyl}cyclohexyl)acetamide] has a melting point of 153 °C.
For `CC(C)c1cccc(N2CCN(CC[C@H]3CC[C@H](NC(=O)CC#N)CC3)CC2)c1` [Example 335, 2-Cyano-N-(4-{2-[4-(3-isopropylphenyl)piperazin-1-yl]ethyl}cyclohexyl)acetamide], the melting point was 153 °C.
Work on `Cc1cc(C)cc(N2CCN(CC[C@H]3CC[C@@H](NC(=O)CC#N)CC3)CC2)c1` [Example 336, 2-Cyano-N-(4-{2-[4-(3,5-dimethylphenyl)piperazin-1-yl]ethyl}cyclohexyl)acetamide] yielded a melting point of 119 °C.
Work on `CS(=O)(=O)CC(=O)N[C@H]1CC[C@H](CCN2CCN(c3cccc(C(F)(F)F)c3)CC2)CC1` [Example 337, 2-Methanesulfonyl-N-(4-{2-[4-(3-trifluoromethylphenyl)piperazin-1-yl]ethyl}cyclohexyl)acetamide] yielded a melting point of 158 °C.
For `Cc1ccc(N2CCN(CC[C@H]3CC[C@H](NC(=O)CC#N)CC3)CC2)cc1F` [Example 339, 2-Cyano-N-(4-{2-[4-(3-fluoro-4-methylphenyl)piperazin-1-yl]ethyl}cyclohexyl)acetamide], the melting point was 208 °C.
For `Cc1ccc(N2CCN(CC[C@H]3CC[C@H](NC(=O)CC#N)CC3)CC2)cc1C` [Example 340, 2-Cyano-N-(4-{2-[4-(3,4-dimethylphenyl)piperazin-1-yl]ethyl}cyclohexyl)acetamide], the melting point was 210 °C.
`N#CCC(=O)N[C@H]1CC[C@H](CCN2CCN(c3cc(F)c(F)c(F)c3)CC2)CC1` [Example 341, 2-Cyano-N-(4-{2-[4-(3,4,5-trifluorophenyl)piperazin-1-yl]ethyl}cyclohexyl)acetamide] showed a melting point of 209 °C.
With `N#CCC(=O)N[C@H]1CC[C@H](CCN2CCN(c3cccc(SC(F)(F)F)c3)CC2)CC1` [Example 343, 2-Cyano-N-(4-{2-[4-(3-trifluoromethylsulfanylphenyl)piperazin-1-yl]ethyl}cyclohexyl)-acetamide] the melting point was 165 °C.
Work on `CS(=O)(=O)c1cccc(N2CCN(CC[C@H]3CC[C@H](NC(=O)CC#N)CC3)CC2)c1` [Example 351, 2-Cyano-N-(4-{2-[4-(3-methanesulfonylphenyl)piperazin-1-yl]ethyl}cyclohexyl)acetamide] yielded a melting point of 195 °C.
In the case of `N#CCC(=O)N[C@H]1CC[C@H](CCN2CCN(c3cccc(C(F)F)c3)CC2)CC1` [Example 354, 2-Cyano-N-(4-{2-[4-(3-difluoromethylphenyl)piperazin-1-yl]ethyl}cyclohexyl)acetamide], the melting point is reported as 185 °C.
`Cc1c(F)cccc1N1CCN(CC[C@H]2CC[C@H](NC(=O)CCCC#N)CC2)CC1` [Example 356, 4-Cyano-N-(4-{2-[4-(3-fluoro-2-methylphenyl)piperazin-1-yl]ethyl}cyclohexyl)butanamide] gave a melting point of 159 °C.
In the case of `N#CCCCC(=O)N[C@H]1CC[C@H](CCN2CCN(c3ccc(F)c(F)c3)CC2)CC1` [Example 357, 4-Cyano-N-(4-{2-[4-(3,4-difluorophenyl)piperazin-1-yl]ethyl}cyclohexyl)butanamide], the melting point is reported as 141 °C.
In the case of `Cc1cc(N2CCN(CC[C@H]3CC[C@H](NC(=O)CCCC#N)CC3)CC2)ccc1F` [Example 358], the melting point is reported as 160 °C.
In the case of `N#CCC(=O)N[C@H]1CC[C@H](CCN2CCN(c3ccc(Cl)cc3F)CC2)CC1` [Example 359, N-(4-{2-[4-(4-Chloro-2-fluorophenyl)piperazin-1-yl]ethyl}cyclohexyl)-2-cyanoacetamide], the melting point is reported as 218 °C.
`N#CCC(=O)N[C@H]1CC[C@H](CCN2CCN(c3ccc(Cl)c(C(F)(F)F)c3)CC2)CC1` [Example 360, N-(4-{2-[4-(4-Chloro-3-trifluoromethylphenyl)piperazin-1-yl]ethyl}cyclohexyl)-2-cyanoacetamide] showed a melting point of 187 °C.
